Laboratory results reported in ChEMBL document CHEMBL4732126, “Design, synthesis, and biodistribution studies of new analogues of marine alkaloids: Potent in vitro and in vivo fungicidal agents against Candida spp” (Eur J Med Chem, 2021).
Activity calls are given as the source filed them. The rule behind the calls is not given here.

Experiments:
[1] = Toxicity in Swiss mouse assessed as relative liver weight at 10 mg/kg, ip measured after 24 hrs (reference value: 49.42 +/- 7.17 g); format: organism-based; conditions: in vivo
Candida albicans [2] = test: Fungicidal activity against Candida albicans isolate 4 assessed as fungal killing incubated for 48 hrs followed by plating on SD agar plate; format: functional; conditions: read-out: MFC99.9
Candida tropicalis [3] = test: Antifungal activity against Candida tropicalis ATCC 28707 assessed as reduction in fungal growth incubated for 48 hrs in presence of sorbitol by broth microdilution method; format: functional
[4] = Toxicity in Swiss mouse assessed as relative spleen weight at 1 mg/kg, ip measured after 24 hrs (reference value: 4.02 +/- 0.59 g); format: organism-based; conditions: in vivo
Candida albicans [5] = test: Antifungal activity against Candida albicans isolate 11 assessed as reduction in fungal growth incubated for 48 hrs by broth microdilution method; format: functional
[6] = Toxicity in Swiss mouse infected with Candida albicans ATCC 10231 assessed as effect on heart at 10 mg/kg, ip administered at 2, 24 and 48 hrs post-infection and measured at 24 hrs after last dose by macroscopic analysis; format: organism-based; conditions: in vivo, 72 h
Nakaseomyces glabratus = test: Fungicidal activity against Candida glabrata ATCC 2001 assessed as fungal killing incubated for 48 hrs followed by plating on SD agar plate; format: functional; conditions: read-out: MFC99.9
Candida albicans [7] = test: In vivo antifungal activity in Swiss mouse infected with Candida albicans ATCC 10231 assessed as reduction in fungal load in spleen at 1 mg/kg, ip administered at 2, 24 and 48 hrs post-infection and measured per gm of organ at 24 hrs post-last dose (reference value: 2.34); format: functional; conditions: time 72 hrs
[8] = Toxicity in Swiss mouse assessed as relative kidney weight at 20 mg/kg, ip measured after 24 hrs (reference value: 14.91 +/- 0.99 g); format: organism-based; conditions: in vivo
Candida albicans [9] = test: Antifungal activity against Candida albicans isolate 12 assessed as reduction in fungal growth incubated for 48 hrs by broth microdilution method; format: functional
[10] = Toxicity in Swiss mouse infected with Candida albicans ATCC 10231 assessed as effect on lung weight at 10 mg/kg, ip administered at 2, 24 and 48 hrs post-infection and measured at 24 hrs after last dose; format: organism-based; conditions: in vivo, 72 h
[11] = Toxicity in Swiss mouse assessed as relative lung weight at 1 mg/kg, ip measured after 24 hrs (reference value: 6.35 +/- 0.68 g); format: organism-based; conditions: in vivo
[12] = Toxicity in Swiss mouse assessed as relative spleen weight at 20 mg/kg, ip measured after 24 hrs (reference value: 4.02 +/- 0.59 g); format: organism-based; conditions: in vivo
Candida tropicalis [13] = test: Antifungal activity against Candida tropicalis ATCC 28707 assessed as reduction in fungal growth incubated for 48 hrs by broth microdilution method; format: functional
Candida albicans [14] = test: Fungicidal activity against Candida albicans isolate 13 assessed as fungal killing incubated for 48 hrs followed by plating on SD agar plate; format: functional; conditions: read-out: MFC99.9
[15] = Toxicity in Swiss mouse infected with Candida albicans ATCC 10231 assessed as effect on body weight at 0.5 to 1 mg/kg, ip administered at 2, 24 and 48 hrs post-infection and measured at 24 hrs after last dose; format: organism-based; conditions: in vivo, 72 h, dose 0.5-1 mg/kg
Candida albicans [16] = test: Fungicidal activity against Candida albicans isolate 1 assessed as fungal killing incubated for 48 hrs followed by plating on SD agar plate; format: functional; conditions: read-out: MFC99.9
Candida albicans [17] = test: Fungicidal activity against Candida albicans isolate 11 assessed as fungal killing incubated for 48 hrs followed by plating on SD agar plate; format: functional; conditions: read-out: MFC99.9
Pichia kudriavzevii [18] = test: Antifungal activity against Candida krusei ATCC 34135 assessed as reduction in fungal growth incubated for 48 hrs by broth microdilution method; format: functional
Candida albicans [19] = test: Fungicidal activity against Candida albicans isolate 6 assessed as fungal killing incubated for 48 hrs followed by plating on SD agar plate; format: functional; conditions: read-out: MFC99.9
[20] = Toxicity in Swiss mouse assessed as relative liver weight at 0.5 mg/kg, ip measured after 24 hrs (reference value: 49.42 +/- 7.17 g); format: organism-based; conditions: in vivo
[21] = Toxicity in Swiss mouse assessed as relative heart weight at 3 mg/kg, ip measured after 24 hrs (reference value: 4.75 +/- 0.60 g); format: organism-based; conditions: in vivo
[22] = Toxicity in Swiss mouse assessed as relative kidney weight at 0.5 mg/kg, ip measured after 24 hrs (reference value: 14.91 +/- 0.99 g); format: organism-based; conditions: in vivo
Candida albicans [23] = test: In vivo antifungal activity in Swiss mouse infected with Candida albicans ATCC 10231 assessed as reduction in fungal load in spleen at 0.5 mg/kg, ip administered at 2, 24 and 48 hrs post-infection and measured per gm of organ at 24 hrs post-last dose (reference value: 2.34); format: functional; conditions: time 72 hrs
Pichia kudriavzevii [24] = test: Antifungal activity against Candida krusei ATCC 34135 assessed as reduction in fungal growth incubated for 48 hrs in presence of sorbitol by broth microdilution method; format: functional
Candida albicans [25] = test: Antifungal activity against Candida albicans ATCC 10231 assessed as reduction in fungal growth incubated for 48 hrs by broth microdilution method; format: functional
[26] = Toxicity in Swiss mouse assessed as body weight at 3 mg/kg, ip measured after 24 hrs (reference value: 36.25 +/- 0.31 g); format: organism-based; conditions: in vivo
Candida albicans [27] = test: Antifungal activity against Candida albicans ATCC 18804 assessed as reduction in fungal growth incubated for 48 hrs by broth microdilution method; format: functional
Pichia kudriavzevii [28] = test: Disruption of cell membrane in Candida krusei ATCC 34135 assessed as increase in intracellular leakage at MIC incubated for 24 hrs by UV spectrophotometric analysis; format: cell-based
[29] = Toxicity in Swiss mouse infected with Candida albicans ATCC 10231 assessed as effect on heart weight at 10 mg/kg, ip administered at 2, 24 and 48 hrs post-infection and measured at 24 hrs after last dose; format: organism-based; conditions: in vivo, 72 h
[30] = Toxicity in Swiss mouse assessed as effect on heart at 0.5 to 10 mg/kg, ip measured after 24 hrs by macroscopic analysis; format: organism-based; conditions: in vivo, dose 0.5-10 mg/kg
Candida albicans [31] = test: Antifungal activity against Candida albicans isolate 5 assessed as reduction in fungal growth incubated for 48 hrs by broth microdilution method; format: functional
Candida albicans [32] = test: Antifungal activity against Candida albicans isolate 7 assessed as reduction in fungal growth incubated for 48 hrs by broth microdilution method; format: functional
[33] = Toxicity in Swiss mouse assessed as relative spleen weight at 10 mg/kg, ip measured after 24 hrs (reference value: 4.02 +/- 0.59 g); format: organism-based; conditions: in vivo
Candida albicans [34] = test: Antifungal activity against Candida albicans isolate 1 assessed as reduction in fungal growth incubated for 48 hrs by broth microdilution method; format: functional
[35] = Toxicity in Swiss mouse infected with Candida albicans ATCC 10231 assessed as effect on spleen at 10 mg/kg, ip administered at 2, 24 and 48 hrs post-infection and measured at 24 hrs after last dose by macroscopic analysis; format: organism-based; conditions: in vivo, 72 h
[36] = Toxicity in Swiss mouse assessed as effect on kidney at 0.5 to 10 mg/kg, ip measured after 24 hrs by macroscopic analysis; format: organism-based; conditions: in vivo, dose 0.5-10 mg/kg
[37] = Toxicity in Swiss mouse assessed as effect on lung at 0.5 to 10 mg/kg, ip measured after 24 hrs by macroscopic analysis; format: organism-based; conditions: in vivo, dose 0.5-10 mg/kg
Candida albicans [38] = test: Fungicidal activity against Candida albicans isolate 9 assessed as fungal killing incubated for 48 hrs followed by plating on SD agar plate; format: functional; conditions: read-out: MFC99.9

## [Cl-].[N-]=[N+]=NCCCCCCCCCCCCOCCCc1ccc[n+](Cc2ccccc2)c1
[1]
  Activity: 43.58 g
Candida albicans [2]
  MFC: 1.95 µg/mL
Candida tropicalis [3]
  MIC: 7.8 µg/mL
[4]
  Activity: 4.29 g
Candida albicans [5]
  MIC: 7.8 µg/mL
[6]
  Activity: Non-Toxic
Nakaseomyces glabratus
  MFC: 7.8 µg/mL
Candida albicans [7]
  Activity: 0 log10CFU
[8]
  Activity: 15.79 g
Candida albicans [9]
  MIC: 7.8 µg/mL
[10]
  Activity: Non-Toxic
[11]
  Activity: 5.33 g
[12]
  Activity: 2.93 g
Candida tropicalis [13]
  MIC: 7.8 µg/mL
Candida albicans [14]
  MFC: 7.8 µg/mL
[15]
  Activity: Non-Toxic
Candida albicans [16]
  MFC: 7.8 µg/mL
Candida albicans [17]
  MFC: 7.8 µg/mL
Pichia kudriavzevii [18]
  MIC: 3.9 µg/mL
Candida albicans [19]
  MFC: 31.2 µg/mL
[20]
  Activity: 43.25 g
[21]
  Activity: 4.45 g
[22]
  Activity: 14.41 g
Candida albicans [23]
  Activity: 0 log10CFU
Pichia kudriavzevii [24]
  MIC: 3.9 µg/mL
Candida albicans [25]
  MIC: 7.8 µg/mL
[26]
  Activity: 38.87 g
Candida albicans [27]
  MIC: 7.8 µg/mL
Pichia kudriavzevii [28]
  Activity: Active
[29]
  Activity: Non-Toxic
[30]
  Activity: Non-Toxic
Candida albicans [31]
  MIC: 7.8 µg/mL
Candida albicans [32]
  MIC: 1.95 µg/mL
[33]
  Activity: 2.85 g
Candida albicans [34]
  MIC: 7.8 µg/mL
[35]
  Activity: Non-Toxic
[36]
  Activity: Non-Toxic
[37]
  Activity: Non-Toxic
Candida albicans [38]
  MFC: 31.2 µg/mL
